Results: article PMC3846293 (Bioorganic & medicinal chemistry letters, 2013)
Marks after values point to notes of the source that are not given here. One block for each compound: values may come before it.

How the values were obtained:
[1] = molecular target: rat mGlu5 (Rattus norvegicus, UniProt P31424); assay: Calcium mobilization mGlu5 assay; format: cell-based; settings: for mGlu5 pIC50 (± SEM) / IC50: HEK293A cells expressing rat mGlu5, EC80 glutamate; for mGlu5 pIC50 (± SEM): average of n ≥ 3; for IC50: read-out: mGlu5 IC50
[2] = test system: marble burying; settings: mice; ref 7a,d; cited from earlier work
[3] = test system: marble burying; assay: Mouse marble burying model of anxiety; settings: IP dosing, 15 minute pretreatment; all doses greater than or equal to 3 mg/kg; n = 8 per dose; P < 0.001 vs. vehicle
[4] = prior PK studies in rats; cited from earlier work
[5] = test system: panel of 68 clinically relevant GPCRs, ion channels, kinases, and transporters; assay: Radioligand binding assay panel; settings: 10 μM compound; significant = more than 50% inhibition of radioligand binding

rat mGlu5, sequence (P31424 21-1203): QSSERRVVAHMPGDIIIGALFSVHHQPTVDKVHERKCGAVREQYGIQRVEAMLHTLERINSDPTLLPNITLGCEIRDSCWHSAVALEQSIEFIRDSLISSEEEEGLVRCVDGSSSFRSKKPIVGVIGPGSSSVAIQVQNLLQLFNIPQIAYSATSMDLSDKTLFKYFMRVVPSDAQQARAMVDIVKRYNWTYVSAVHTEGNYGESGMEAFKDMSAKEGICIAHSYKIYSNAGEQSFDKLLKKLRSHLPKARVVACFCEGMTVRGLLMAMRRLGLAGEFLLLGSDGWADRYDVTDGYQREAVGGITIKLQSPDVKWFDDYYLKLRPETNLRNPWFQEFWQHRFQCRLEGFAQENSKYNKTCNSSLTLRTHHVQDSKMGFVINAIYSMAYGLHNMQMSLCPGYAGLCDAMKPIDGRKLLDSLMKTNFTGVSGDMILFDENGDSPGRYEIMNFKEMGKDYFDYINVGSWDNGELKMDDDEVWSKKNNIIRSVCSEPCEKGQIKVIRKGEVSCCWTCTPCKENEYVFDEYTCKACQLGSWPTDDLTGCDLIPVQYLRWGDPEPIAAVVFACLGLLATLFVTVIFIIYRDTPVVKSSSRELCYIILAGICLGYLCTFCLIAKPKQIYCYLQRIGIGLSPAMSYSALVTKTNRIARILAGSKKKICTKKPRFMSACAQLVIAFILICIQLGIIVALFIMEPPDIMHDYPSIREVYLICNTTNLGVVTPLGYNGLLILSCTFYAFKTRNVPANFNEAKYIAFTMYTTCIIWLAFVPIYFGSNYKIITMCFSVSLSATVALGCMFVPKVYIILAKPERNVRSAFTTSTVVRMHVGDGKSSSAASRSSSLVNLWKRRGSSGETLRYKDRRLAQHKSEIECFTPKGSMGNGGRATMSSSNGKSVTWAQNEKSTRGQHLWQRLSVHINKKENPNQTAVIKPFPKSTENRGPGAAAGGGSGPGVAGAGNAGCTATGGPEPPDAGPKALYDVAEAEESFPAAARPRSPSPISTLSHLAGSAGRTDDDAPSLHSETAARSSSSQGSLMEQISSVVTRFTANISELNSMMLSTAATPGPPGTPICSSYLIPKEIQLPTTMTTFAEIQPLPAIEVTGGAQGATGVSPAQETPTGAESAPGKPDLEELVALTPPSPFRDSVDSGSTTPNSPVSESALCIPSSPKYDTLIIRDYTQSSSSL

mGlu5 pIC50 (± SEM) [1]: < 5.0 ^c
IC50 [1]: > 10 µM
SMILES: O=C(Nc1ccncn1)c1cccc(Oc2cccnc2)c1 [Compound 11]

SMILES: Cc1cccc(C#Cc2ccccc2)n1 [MPEP]
efficacy in marble burying model [2]: effective

SMILES: CN1CC(=O)NC1=NC(=O)Nc1cccc(Cl)c1 [fenobam]
efficacy in marble burying model [2]: effective

mGlu5 pIC50 (± SEM) [1]: < 4.5
IC50 [1]: > 30 µM
SMILES: O=C(Nc1nc(C(F)(F)F)cs1)c1cccc(Oc2cccnc2)c1 [Compound 20]

mGlu5 pIC50 (± SEM) [1]: < 4.5
IC50 [1]: > 30 µM
SMILES: Cc1nsc(NC(=O)c2cccc(Oc3cccnc3)c2)n1 [Compound 19]

responses in radioligand binding panel of 68 targets [5]: no significant responses
SMILES: Cc1csc(NC(=O)c2cc(F)cc(Oc3cncnc3)c2)n1 [Compound 24]
inhibition of marble burying [3]: Statistically significant inhibition
clearance in rats [4]: moderate to high clearance

fold loss of potency vs. 28 ([1]; mGlu5 potency vs 28): > 100 fold
SMILES: Cc1ncc(Oc2cc(Cl)cc(C(=O)Nc3ccc(F)cn3)c2)cn1 [Compound 75]

fold less potent than 2 ([1]; mGlu5 potency vs 2): more than 20 fold
SMILES: O=C(Nc1cccc(Cl)c1)c1cccc(Oc2cccnc2)c1 [Compound 3]

fold decrease in potency vs. 66 ([1]; mGlu5 potency vs 66): 5 fold
SMILES: Cc1cccc(NC(=O)c2cc(Cl)cc(Oc3cnc(C)nc3)c2)n1 [Compound 76]

fold loss of potency compared to 25 ([1]; mGlu5 potency vs 25): 7 fold
SMILES: CCCc1csc(NC(=O)c2cc(Cl)cc(Oc3cncnc3)c2)n1 [Compound 38]

fold loss of potency compared to 24 ([1]; mGlu5 potency vs 24): 10 fold
SMILES: CCCc1csc(NC(=O)c2cc(F)cc(Oc3cncnc3)c2)n1 [Compound 33]
